From US12281225B2, “Process for preparing stable polymers containing vinylimidazole” (BASF SE, priority 2018, dated 2025)

Key:
[1] = Iodine color number according to DIN 6162:2014-09; assay type: physicochemical
[2] = Physical stability; visual assessment (color, turbidity, phase separation); assay type: physicochemical; design: key: ++: no discernible change with respect to color, turbidity or phase separation; +: marginal change in color number, somewhat increased Tyndall effect but no turbidity; 0: easily discernible increase in color number and moderate turbidity−no phase separation; −: turbidity and change in color number readily discernible by visual assessment; −−: strong color change with strong turbidity and incipient phase separation
In short: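 Scoring was by eye on a scale from ++ to −−, where ++ means no change and −− means strong color change, strong turbidity and incipient phase separation. Color, turbidity and phase separation were the criteria.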

[3] = test system: Yeast: Candida albicans, Candida valida, Rhodotorula rura, Saccharomyces cerevisiae; assay: Preservation test with periodic inoculation, yeast assessment; assay type: cell-based; details: sample stored 60 d at 40° C.
In short: (§1)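 Semiquantitative growth scores (−− no growth to ++ strong growth) from weekly agar streaks incubated 3 days at 25 °C. Preserved polymer samples got four weekly 0.5 ml inoculations (titer 10^9 organisms/ml), the first two days after preservative addition; testing began fresh and after 60-day storage at 40 °C.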

[4] = test system: Bacteria: Escherichia coli, Staphylococcus aureus, Pseudomonas aeruginosa, Pseudomonas putida, Burkholderia cepacia, Alcaligenes faecalis; assay: Preservation test with periodic inoculation, bacteria assessment; assay type: cell-based; details: for Start sample measurement, bact. assess., 4th inoculation: freshly formulated; for 60 d 40° C., bact. assess., 4th inoculation: sample stored 60 d at 40° C.
In short: as §1

[5] = Polymer P5 (HP56) with stabilizer

Compound: Cn1sccc1=O [MIT, methyl-4-isothiazolin-3-one]
- Iodine color number, 60 d 40° C. ([1]; Polymer P1 with stabilizer): 5.5
- Iodine color number, start ([1]; Polymer P1 with stabilizer): 2.5
- Iodine color number, 60 d 40° C. ([1]; Polymer P2 with stabilizer): 5.8
- Iodine color number, start ([1]; Polymer P2 with stabilizer): 2.7
- Iodine color number, 60 d 40° C. ([1]; Polymer P3 with stabilizer): 8.5
- Iodine color number, start ([1]; Polymer P3 with stabilizer): 3.4
- Iodine color number, 60 d 40° C. ([1]; Polymer P4 with stabilizer): 8.7
- Iodine color number, start ([1]; Polymer P4 with stabilizer): 3.4
- Iodine color number, 60 d 40° C. [1, 5]: 8.7
- Iodine color number, start [1, 5]: 3.6
- Iodine color number, 60 d 40° C. ([1]; Polymer P6 with stabilizer): 8.5
- Iodine color number, start ([1]; Polymer P6 with stabilizer): 3.6
- Iodine color number, 60 d 40° C. ([1]; Polymer P7 with stabilizer): 8.5
- Iodine color number, start ([1]; Polymer P7 with stabilizer): 3.6
- Iodine color number, 60 d 40° C. ([1]; Polymer P8 with stabilizer): 8.6
- Iodine color number, start ([1]; Polymer P8 with stabilizer): 3.5
- Iodine color number, 60 d 40° C. ([1]; Polymer P9 with stabilizer): 12.7
- Iodine color number, start ([1]; Polymer P9 with stabilizer): 3.9
- Physical stability, 60 d 40° C.* ([2]; Polymer P1 with stabilizer): −
- Physical stability, 60 d 40° C.* ([2]; Polymer P2 with stabilizer): −
- Physical stability, 60 d 40° C.* ([2]; Polymer P3 with stabilizer): −
- Physical stability, 60 d 40° C.* ([2]; Polymer P4 with stabilizer): −
- Physical stability, 60 d 40° C.* [2, 5]: −
- Physical stability, 60 d 40° C.* ([2]; Polymer P6 with stabilizer): −
- Physical stability, 60 d 40° C.* ([2]; Polymer P7 with stabilizer): −
- Physical stability, 60 d 40° C.* ([2]; Polymer P8 with stabilizer): −
- Physical stability, 60 d 40° C.* ([2]; Polymer P9 with stabilizer): −
- 60 d 40° C., yeast assess., 4th inoculation ([3]; Polymer P1): 0 (moderate growth, max. 400 colonies)
- 60 d 40° C., yeast assess., 4th inoculation ([3]; Polymer P2): +
- 60 d 40° C., yeast assess., 4th inoculation ([3]; Polymer P3): ++
- 60 d 40° C., yeast assess., 4th inoculation ([3]; Polymer P4): ++
- 60 d 40° C., yeast assess., 4th inoculation ([3]; Polymer P5 (HP56)): ++
- 60 d 40° C., yeast assess., 4th inoculation ([3]; Polymer P6): ++
- 60 d 40° C., yeast assess., 4th inoculation ([3]; Polymer P7): ++
- 60 d 40° C., yeast assess., 4th inoculation ([3]; Polymer P8): +
- 60 d 40° C., yeast assess., 4th inoculation ([3]; Polymer P9): ++
- Start sample measurement, bact. assess., 4th inoculation ([4]; Polymer P1): − (slight growth, max. 100 colonies)
- 60 d 40° C., bact. assess., 4th inoculation ([4]; Polymer P1): +
- Start sample measurement, bact. assess., 4th inoculation ([4]; Polymer P2): − (slight growth, max. 100 colonies)
- 60 d 40° C., bact. assess., 4th inoculation ([4]; Polymer P2): +
- Start sample measurement, bact. assess., 4th inoculation ([4]; Polymer P3): − (slight growth, max. 100 colonies)
- 60 d 40° C., bact. assess., 4th inoculation ([4]; Polymer P3): +
- 60 d 40° C., bact. assess., 4th inoculation ([4]; Polymer P4): +
- 60 d 40° C., bact. assess., 4th inoculation ([4]; Polymer P5 (HP56)): +
- 60 d 40° C., bact. assess., 4th inoculation ([4]; Polymer P6): +
- 60 d 40° C., bact. assess., 4th inoculation ([4]; Polymer P7): +
- Start sample measurement, bact. assess., 4th inoculation ([4]; Polymer P8): − (slight growth, max. 100 colonies)
- 60 d 40° C., bact. assess., 4th inoculation ([4]; Polymer P8): +
- 60 d 40° C., bact. assess., 4th inoculation ([4]; Polymer P9): +
